ChEMBL document CHEMBL5046316, “Structure-Based Optimization of a Fragment-like TLR8 Binding Screening Hit to an In Vivo Efficacious TLR7/8 Antagonist” (ACS Med Chem Lett, 2022)

Key:
Toll-like receptor 8 [1] = molecular target: T1, Toll-like receptor 8 (Homo sapiens, UniProt Q9NR97); experiment: Antagonist activity at human TLR8 expressed in Drosophila S2 by TR-FRET assay
T1 sequence (Q9NR97 whole entry): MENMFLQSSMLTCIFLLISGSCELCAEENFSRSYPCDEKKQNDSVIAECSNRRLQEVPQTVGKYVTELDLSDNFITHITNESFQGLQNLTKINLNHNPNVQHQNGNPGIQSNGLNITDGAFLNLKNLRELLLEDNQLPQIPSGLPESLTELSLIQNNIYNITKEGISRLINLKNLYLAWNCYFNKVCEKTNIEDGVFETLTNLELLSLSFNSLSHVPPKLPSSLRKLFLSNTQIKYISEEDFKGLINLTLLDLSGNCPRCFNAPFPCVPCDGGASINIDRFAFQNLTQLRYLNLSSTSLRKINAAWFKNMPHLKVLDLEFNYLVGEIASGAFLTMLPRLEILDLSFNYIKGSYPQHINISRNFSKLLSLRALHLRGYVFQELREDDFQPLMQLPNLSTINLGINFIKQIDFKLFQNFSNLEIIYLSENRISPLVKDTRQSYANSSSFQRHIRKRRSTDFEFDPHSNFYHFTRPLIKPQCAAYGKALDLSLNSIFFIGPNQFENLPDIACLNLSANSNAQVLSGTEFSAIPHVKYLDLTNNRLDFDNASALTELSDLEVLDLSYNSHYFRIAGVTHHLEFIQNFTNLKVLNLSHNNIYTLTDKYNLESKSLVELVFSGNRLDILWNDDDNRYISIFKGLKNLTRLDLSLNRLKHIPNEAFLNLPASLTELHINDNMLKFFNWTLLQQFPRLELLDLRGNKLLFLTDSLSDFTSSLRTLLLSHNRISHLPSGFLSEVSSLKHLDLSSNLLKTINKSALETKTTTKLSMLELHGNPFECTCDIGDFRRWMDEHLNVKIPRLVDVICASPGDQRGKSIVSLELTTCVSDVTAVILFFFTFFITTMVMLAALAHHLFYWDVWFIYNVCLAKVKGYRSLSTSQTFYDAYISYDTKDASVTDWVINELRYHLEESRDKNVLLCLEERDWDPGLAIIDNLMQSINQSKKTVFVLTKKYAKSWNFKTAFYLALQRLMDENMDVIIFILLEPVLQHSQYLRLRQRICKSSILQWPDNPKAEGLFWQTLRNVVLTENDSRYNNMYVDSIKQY

[2] = Dissociation constant, pKa of the compound by UV spectrometric titration method; type: physicochemical
Toll-like receptor 8 [3] = molecular target: T1, Toll-like receptor 8; experiment: Antagonist activity at human TLR8 expressed in human PBMC cells assessed as inhibition of ssRNA stimulated TNF level preincubated for 30 mins followed by stimulation and measured after 20 hrs by multiplate reader assay; type: cell-based
Toll-like receptor 7 = molecular target: T2, Toll-like receptor 7 (Homo sapiens, UniProt Q9NYK1); experiment: Antagonist activity at human TLR7 expressed in human PBMC cells assessed as inhibition of ssRNA stimulated IFNalpha level preincubated for 30 mins followed by stimulation and measured after 20 hrs by AlphaLISA method; type: cell-based
T2 sequence (Q9NYK1 whole entry): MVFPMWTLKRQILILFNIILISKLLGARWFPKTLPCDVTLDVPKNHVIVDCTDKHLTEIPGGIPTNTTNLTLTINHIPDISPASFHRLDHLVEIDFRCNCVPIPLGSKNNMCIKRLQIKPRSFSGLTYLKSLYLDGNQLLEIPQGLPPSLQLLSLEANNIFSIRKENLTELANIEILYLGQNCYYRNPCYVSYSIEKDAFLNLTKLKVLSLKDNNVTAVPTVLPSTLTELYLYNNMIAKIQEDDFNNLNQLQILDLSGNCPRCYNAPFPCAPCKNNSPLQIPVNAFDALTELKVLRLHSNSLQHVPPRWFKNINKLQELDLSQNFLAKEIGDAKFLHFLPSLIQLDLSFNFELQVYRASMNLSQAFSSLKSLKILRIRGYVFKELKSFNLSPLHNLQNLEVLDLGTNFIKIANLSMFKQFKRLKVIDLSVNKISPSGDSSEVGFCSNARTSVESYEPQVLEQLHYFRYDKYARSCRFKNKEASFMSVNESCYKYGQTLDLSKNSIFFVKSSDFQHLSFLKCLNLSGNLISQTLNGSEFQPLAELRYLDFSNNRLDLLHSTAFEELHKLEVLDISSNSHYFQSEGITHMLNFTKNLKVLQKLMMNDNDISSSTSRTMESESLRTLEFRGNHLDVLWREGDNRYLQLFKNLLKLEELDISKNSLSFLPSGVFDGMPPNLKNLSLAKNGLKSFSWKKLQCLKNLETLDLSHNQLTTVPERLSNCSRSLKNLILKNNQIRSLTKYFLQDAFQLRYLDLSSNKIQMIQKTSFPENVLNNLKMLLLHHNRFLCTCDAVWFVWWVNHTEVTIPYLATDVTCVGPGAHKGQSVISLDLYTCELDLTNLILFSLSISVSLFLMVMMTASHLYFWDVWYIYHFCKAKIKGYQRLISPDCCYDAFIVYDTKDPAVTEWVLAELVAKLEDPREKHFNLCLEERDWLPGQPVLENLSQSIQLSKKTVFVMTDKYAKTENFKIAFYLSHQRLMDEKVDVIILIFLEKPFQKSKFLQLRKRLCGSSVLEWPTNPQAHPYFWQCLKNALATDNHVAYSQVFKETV

[4] = Octanol/water partition coefficient, logD of compound at pH 7.4 measured after 4 hrs by shake flask method; type: physicochemical
[5] = molecular target: Voltage-gated inwardly rectifying potassium channel KCNH2 (Homo sapiens, UniProt Q12809); experiment: Inhibition of human ERG; type: toxicity
Sequence of Voltage-gated inwardly rectifying potassium channel KCNH2 (Q12809 whole entry): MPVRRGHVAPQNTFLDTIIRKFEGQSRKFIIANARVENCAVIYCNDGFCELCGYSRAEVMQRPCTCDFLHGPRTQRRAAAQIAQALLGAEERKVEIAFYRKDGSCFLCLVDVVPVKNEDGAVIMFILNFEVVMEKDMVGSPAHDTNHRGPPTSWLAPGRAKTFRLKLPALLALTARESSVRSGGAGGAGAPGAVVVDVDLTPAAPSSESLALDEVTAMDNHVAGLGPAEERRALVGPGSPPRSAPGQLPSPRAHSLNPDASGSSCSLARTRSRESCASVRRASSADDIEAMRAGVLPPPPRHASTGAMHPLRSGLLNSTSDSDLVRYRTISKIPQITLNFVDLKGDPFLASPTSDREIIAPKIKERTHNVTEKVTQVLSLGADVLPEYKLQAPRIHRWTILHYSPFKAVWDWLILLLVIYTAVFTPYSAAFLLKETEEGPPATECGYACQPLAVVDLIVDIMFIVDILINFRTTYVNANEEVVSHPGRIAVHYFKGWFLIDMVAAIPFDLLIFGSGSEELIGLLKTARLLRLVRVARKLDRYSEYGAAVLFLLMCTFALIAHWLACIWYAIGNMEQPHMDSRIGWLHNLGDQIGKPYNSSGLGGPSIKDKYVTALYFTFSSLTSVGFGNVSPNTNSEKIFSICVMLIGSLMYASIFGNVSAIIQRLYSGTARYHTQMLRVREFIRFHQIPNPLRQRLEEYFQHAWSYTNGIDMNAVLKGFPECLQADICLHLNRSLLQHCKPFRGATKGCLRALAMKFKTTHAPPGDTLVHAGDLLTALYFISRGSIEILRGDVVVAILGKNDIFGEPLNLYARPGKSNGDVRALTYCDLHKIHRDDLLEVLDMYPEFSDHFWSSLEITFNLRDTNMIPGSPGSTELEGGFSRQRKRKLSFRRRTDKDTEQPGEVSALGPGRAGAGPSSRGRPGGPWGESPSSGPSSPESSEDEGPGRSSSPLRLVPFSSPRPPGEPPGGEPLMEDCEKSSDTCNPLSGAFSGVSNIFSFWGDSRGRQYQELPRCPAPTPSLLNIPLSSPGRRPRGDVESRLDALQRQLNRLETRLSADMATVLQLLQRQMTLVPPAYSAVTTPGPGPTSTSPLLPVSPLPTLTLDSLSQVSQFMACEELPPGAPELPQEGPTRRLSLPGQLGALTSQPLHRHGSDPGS

Cytochrome P450 3A4 = Cytochrome P450 3A4 (Homo sapiens, UniProt P08684); experiment: Inhibition of CYP3A4 (unknown origin); type: ADME
Sequence of Cytochrome P450 3A4 (P08684 whole entry): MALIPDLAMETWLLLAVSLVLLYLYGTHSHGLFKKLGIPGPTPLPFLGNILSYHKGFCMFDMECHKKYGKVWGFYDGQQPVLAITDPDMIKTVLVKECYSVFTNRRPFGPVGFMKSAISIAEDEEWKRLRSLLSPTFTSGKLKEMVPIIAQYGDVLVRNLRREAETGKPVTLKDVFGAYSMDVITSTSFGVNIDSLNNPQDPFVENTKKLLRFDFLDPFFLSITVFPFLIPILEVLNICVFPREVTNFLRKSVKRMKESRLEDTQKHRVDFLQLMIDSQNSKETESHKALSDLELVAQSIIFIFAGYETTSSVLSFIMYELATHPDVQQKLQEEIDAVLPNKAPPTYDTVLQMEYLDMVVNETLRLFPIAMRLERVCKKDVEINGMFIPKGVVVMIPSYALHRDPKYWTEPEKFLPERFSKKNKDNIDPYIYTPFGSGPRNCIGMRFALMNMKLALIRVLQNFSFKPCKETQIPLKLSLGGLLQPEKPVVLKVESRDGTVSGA

[6] = Dose normalized Cmax in C57BL/6 mouse at 3 mg/kg, po and 1 mg/kg, iv administered as cassette dose measured upto 24 hrs by LC/MS/MS analysis; type: ADME, organism-based; conditions: in vivo
[7] = Dose normalized AUC in C57BL/6 mouse at 3 mg/kg, po and 1 mg/kg,iv administered as cassette dose measured upto 24 hrs by LC/MS/MS analysis; type: ADME, organism-based; set-up: dose 3 mg/kg, time <=24; conditions: in vivo
[8] = Oral bioavailability in C57BL/6 mouse at 3 mg/kg administered as cassette dose measured upto 24 hrs by LC/MS/MS analysis; type: ADME, organism-based; conditions: in vivo
[9] = Clearance in C57BL6 mouse at 3 mg/kg, po or 1mg/kg, iv administered as cassette dose measured upto 24 hrs by LC/MS/MS analysis; type: ADME, organism-based; conditions: in vivo
[10] = Volume of distribution at steady state in C57BL/6 mouse at 3 mg/kg, po or 1 mg/kg, iv administered as cassette dose measured upto 24 hrs by LC/MS/MS analysis; type: ADME, organism-based; conditions: in vivo, read-out: Vdss
[11] = MRT in C57BL/6 mouse at 3 mg/kg, po or 1 mg/kg, iv administered as cassette dose measured upto 24 hrs by LC/MS/MS analysis; type: ADME, organism-based; conditions: in vivo
Toll-like receptor 9 = molecular target: T3, Toll-like receptor 9 (Homo sapiens, UniProt Q9NR96); experiment: Antagonist activity at human TLR9 expressed in human PBMC cells assessed as inhibition of ODN2216 stimulated IFNalpha level preincubated for 30 mins followed by stimulation and measured after 20 hrs by AlphaLISA method; type: cell-based
T3 sequence (Q9NR96 whole entry): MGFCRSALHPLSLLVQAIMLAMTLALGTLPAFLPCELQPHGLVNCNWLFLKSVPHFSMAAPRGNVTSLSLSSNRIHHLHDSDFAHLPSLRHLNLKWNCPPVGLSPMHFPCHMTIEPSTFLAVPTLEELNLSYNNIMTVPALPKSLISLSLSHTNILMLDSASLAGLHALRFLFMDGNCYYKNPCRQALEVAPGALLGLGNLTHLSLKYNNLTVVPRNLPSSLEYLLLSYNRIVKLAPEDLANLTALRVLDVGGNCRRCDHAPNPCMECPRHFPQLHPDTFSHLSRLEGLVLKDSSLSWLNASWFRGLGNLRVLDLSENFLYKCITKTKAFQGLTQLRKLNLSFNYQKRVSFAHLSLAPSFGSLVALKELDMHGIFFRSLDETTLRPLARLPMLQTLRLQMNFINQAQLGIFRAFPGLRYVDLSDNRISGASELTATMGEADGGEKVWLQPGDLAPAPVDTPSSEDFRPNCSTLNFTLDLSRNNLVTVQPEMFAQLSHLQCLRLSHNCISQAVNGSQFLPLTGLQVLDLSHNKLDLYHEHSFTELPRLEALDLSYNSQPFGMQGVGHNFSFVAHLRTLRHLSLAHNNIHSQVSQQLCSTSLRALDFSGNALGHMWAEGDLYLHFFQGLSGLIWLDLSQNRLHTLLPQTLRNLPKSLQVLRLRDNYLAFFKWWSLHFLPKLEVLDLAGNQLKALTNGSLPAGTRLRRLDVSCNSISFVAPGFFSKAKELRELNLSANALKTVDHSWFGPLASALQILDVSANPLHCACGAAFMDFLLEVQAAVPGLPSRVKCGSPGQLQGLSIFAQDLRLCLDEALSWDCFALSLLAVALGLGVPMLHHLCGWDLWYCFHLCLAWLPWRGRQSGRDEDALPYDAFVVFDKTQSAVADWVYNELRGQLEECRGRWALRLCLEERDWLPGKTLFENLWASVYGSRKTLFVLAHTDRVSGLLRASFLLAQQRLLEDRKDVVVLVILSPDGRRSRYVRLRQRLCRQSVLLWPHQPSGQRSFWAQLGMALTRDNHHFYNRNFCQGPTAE

Toll-like receptor 4 = Toll-like receptor 4 (Homo sapiens, UniProt O00206); experiment: Antagonist activity at human TLR4 expressed in human PBMC cells assessed as inhibition of LPS stimulated TNF level preincubated for 30 mins followed by stimulation and measured after 20 hrs by multiplate reader assay; type: cell-based
Sequence of Toll-like receptor 4 (O00206 whole entry): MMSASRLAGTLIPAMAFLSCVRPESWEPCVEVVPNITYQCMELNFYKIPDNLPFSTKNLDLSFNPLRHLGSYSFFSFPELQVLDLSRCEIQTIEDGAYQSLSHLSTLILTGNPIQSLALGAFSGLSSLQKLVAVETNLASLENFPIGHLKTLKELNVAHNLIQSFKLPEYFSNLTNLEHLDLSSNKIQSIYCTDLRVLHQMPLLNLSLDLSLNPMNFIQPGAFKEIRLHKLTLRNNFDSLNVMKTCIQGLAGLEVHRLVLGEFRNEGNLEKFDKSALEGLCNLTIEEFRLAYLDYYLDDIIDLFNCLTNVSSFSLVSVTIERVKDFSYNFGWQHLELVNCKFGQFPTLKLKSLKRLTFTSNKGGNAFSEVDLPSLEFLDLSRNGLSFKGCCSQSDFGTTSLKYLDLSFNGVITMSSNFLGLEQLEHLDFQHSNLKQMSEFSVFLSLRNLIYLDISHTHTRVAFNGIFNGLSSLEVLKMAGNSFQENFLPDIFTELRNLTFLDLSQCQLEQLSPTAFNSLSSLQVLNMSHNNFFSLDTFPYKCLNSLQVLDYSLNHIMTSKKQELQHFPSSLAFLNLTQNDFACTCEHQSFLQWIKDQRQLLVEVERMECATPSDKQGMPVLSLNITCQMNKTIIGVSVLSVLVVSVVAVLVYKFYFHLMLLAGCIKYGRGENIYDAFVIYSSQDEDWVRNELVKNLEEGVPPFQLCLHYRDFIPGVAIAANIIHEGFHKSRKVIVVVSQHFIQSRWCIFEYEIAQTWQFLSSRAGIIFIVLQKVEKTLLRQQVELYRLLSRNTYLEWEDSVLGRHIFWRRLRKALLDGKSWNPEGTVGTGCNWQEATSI

[12] = Permeability of compound in dog MDCK cells; type: ADME, cell-based, Canis lupus familiaris; conditions: read-out: permeability

Compound	IC50 (Toll-like receptor 8 [1])	pKa [2]	IC50 (Toll-like receptor 8 [3])	IC50 (Toll-like receptor 7)	also measured
COc1cc2c(C(=O)N3CCN(C)CC3)n[nH]c2cc1-c1cc(C)nc(C)c1	23 nM	6.7	2.5 nM	–	–
COc1cc2c(C(=O)N3CCN(C)CC3)n[nH]c2cc1-c1ccnc(C)c1F	14 nM	3.7	1.2 nM	> 980 nM	–
Cc1cc(-c2cc3[nH]nc(N[C@H]4CCNC[C@@H]4F)c3cc2C2CC2)cc(C)n1	–	6.7	–	9 nM	–
Cc1nccc(-c2cc3[nH]nc(N[C@H]4CCNC[C@@H]4F)c3cc2C2CC2)c1F	–	3.9	–	0.1 nM	logD at 4 h [4]: 2.5; IC50 [5]: 19000 nM; IC50 (Cytochrome P450 3A4): 4500 nM; Cp(f)/dose [6]: 155 nM/mg/kg; AUC [7]: 635 nM·h/mg/kg; bioavailability [8]: 43%; clearance [9]: 28 mL/min/kg; Vd [10]: 3.1 L/kg; MRT [11]: 1.8 h
COc1cc2cc[nH]c2cc1-c1ccncc1	2 nM	5.8	3600 nM	1700 nM	IC50 (Toll-like receptor 9): > 3600 nM; IC50 (Toll-like receptor 4): > 10000 nM; Papp [12]: 33 ×10⁻⁶ cm/s
COc1cc2c(C(=O)N3CCN(C)CC3)n[nH]c2cc1-c1ccncc1	–	5.3	–	220 nM	–
COc1cc2c(NC3CCN(C)CC3)n[nH]c2cc1-c1cc(C)nc(C)c1	–	6.7	–	–	–
Cc1cc2c(NC3CCN(C)CC3)n[nH]c2cc1-c1ccnc(C)c1F	–	3.9	–	1 nM	–
COc1cc2c(NC3CCN(C)CC3)n[nH]c2cc1-c1ccnc(C)c1F	–	4	–	–	–
COc1cc2c(NC3CCN(C)CC3)n[nH]c2cc1-c1ccncc1	–	5.2	–	3 nM	–
COc1cc(-c2cc3[nH]nc(NC4CCN(C)CC4)c3cc2OC)ccn1	–	3.4	–	11 nM	–
COc1cc2cn[nH]c2cc1-c1ccncc1	51 nM	5.4	> 9300 nM	–	Papp [12]: 38 ×10⁻⁶ cm/s
Cc1nccc(-c2cc3[nH]nc(NC4CCN(C)CC4)c3cc2C2CC2)c1F	3.6 nM	3.9	0.08 nM	0.39 nM	logD at 4 h [4]: 2.5; IC50 [5]: 11000 nM; IC50 (Cytochrome P450 3A4): > 25000 nM; Cmax/dose [6]: 113 nM/mg/kg; AUC [7]: 485 nM·h/mg/kg; bioavailability [8]: 53%; clearance [9]: 49 mL/min/kg; Vd [10]: 4.4 L/kg; MRT [11]: 1.5 h
